These results are taken from ChEMBL document CHEMBL1151353, “Normaytansine, a new antileukemic ansa macrolide from Maytenus buchananii” (1980).

In brackets after ≈: the same amount, converted by molar mass.

The test system of one assay is P388. Put plainly: In vivo antitumor activity against mouse P388 cells in mouse at 100 mg/kg relative to control. Format: functional.
Another assay deals with KB. Briefly: Cytotoxicity against human KB cells. Format: functional. As to conditions: read-out: ED50 (the source's name).

Broadly, the T/C is the ratio of treated to control. In the assay on P388, `COc1cc2cc(c1Cl)NC(=O)C[C@H](OC(=O)[C@H](C)N(C)C(C)=O)[C@]1(C)O[C@H]1[C@H](C)[C@@H]1C[C@@](O)(NC(=O)O1)[C@H](OC)/C=C/C=C(\C)C2` [NORMAYTANSINE] showed a T/C of 181%. Moreover, the EC50 in the assay on KB is 1 ng/mL (≈ 1.47 nM).
